From ChEMBL document CHEMBL1121647, “Synthesis and antiviral properties of (Z)-5-(2-bromovinyl)-2'-deoxyuridine” (1981)
Converted amounts (≈) assume the structure as drawn.

Key:
Format in all cases: functional
[1] = tested on: Human alphaherpesvirus 2; assay: Minimum inhibitory concentration required to reduce HSV-2 (Lyons) strain-induced cytopathogenicity in primary rabbit kidney cell cultures
[2] = tested on: Vesicular stomatitis virus; assay: Minimum inhibitory concentration required to reduce vesicular stomatis virus-induced cytopathogenicity in primary rabbit kidney cell cultures
[3] = tested on: Human alphaherpesvirus 1; assay: Minimum inhibitory concentration required to reduce HSV-1 (F) strain-induced cytopathogenicity in primary rabbit kidney cell cultures
[4] = tested on: Human alphaherpesvirus 2; assay: Minimum inhibitory concentration required to reduce HSV-2 (G) strain-induced cytopathogenicity in primary rabbit kidney cell cultures
[5] = tested on: Human alphaherpesvirus 1; assay: Minimum inhibitory concentration required to reduce HSV-1 (McIntyre) strain-induced cytopathogenicity in primary rabbit kidney cell cultures
[6] = tested on: Human alphaherpesvirus 2; assay: Minimum inhibitory concentration required to reduce HSV-2 (196) strain-induced cytopathogenicity in primary rabbit kidney cell cultures
[7] = tested on: Human alphaherpesvirus 1; assay: Minimum inhibitory concentration required to reduce HSV-1 (KOS) strain-induced cytopathogenicity in primary rabbit kidney cell cultures
[8] = tested on: Human alphaherpesvirus 2; assay: Antiviral activity expressed as minimum HSV-2 (Lyons) strain-induced cytopathogenicity in primary rabbit kidney cell cultures

Question: Which MIC [1] does the source give for `O=c1[nH]c(=O)n([C@H]2C[C@H](O)[C@@H](CO)O2)cc1/C=C\Br` here?
Answer: 4 µg/mL (≈ 12 µM)

Question: What about the MIC [2] of the same molecule?
Answer: > 200 µg/mL

Question: What about the MIC [3] of the same molecule?
Answer: 2 µg/mL (≈ 6 µM)

Question: And the MIC [4]?
Answer: 2 µg/mL (≈ 6 µM)

Question: And the MIC [5]?
Answer: 1 µg/mL (≈ 3 µM)

Question: What about the MIC [6] of the same molecule?
Answer: 4 µg/mL (≈ 12 µM)

Question: What about the MIC [7] of the same molecule?
Answer: 4 µg/mL (≈ 12 µM)

Question: For `O=c1[nH]c(=O)n([C@H]2C[C@H](O)[C@@H](CO)O2)cc1/C=C/Br` [BRIVUDINE], which MIC [8] is on record?
Answer: 0.4 µg/mL (≈ 1.2 µM)

Question: What about the MIC [2] of the same molecule?
Answer: > 200 µg/mL

Question: And the MIC [3]?
Answer: 0.02 µg/mL (≈ 0.06 µM)

Question: And the MIC [4]?
Answer: 0.7 µg/mL (≈ 2.1 µM)

Question: What about the MIC [5] of the same molecule?
Answer: 0.01 µg/mL (≈ 0.03 µM)

Question: What about the MIC [6] of the same molecule?
Answer: 0.4 µg/mL (≈ 1.2 µM)

Question: What about the MIC [7] of the same molecule?
Answer: 0.02 µg/mL (≈ 0.06 µM)

Question: With `O=c1[nH]c(=O)n([C@H]2C[C@H](O)[C@@H](CO)O2)cc1I` [IDOXURIDINE] as the molecule, how does the MIC [8] read?
Answer: 0.2 µg/mL (≈ 0.565 µM)

Question: And the MIC [2]?
Answer: > 200 µg/mL

Question: What about the MIC [3] of the same molecule?
Answer: 0.2 µg/mL (≈ 0.565 µM)

Question: What about the MIC [4] of the same molecule?
Answer: 0.4 µg/mL (≈ 1.13 µM)

Question: What about the MIC [5] of the same molecule?
Answer: 0.2 µg/mL (≈ 0.565 µM)

Question: What about the MIC [6] of the same molecule?
Answer: 0.4 µg/mL (≈ 1.13 µM)

Question: And the MIC [7]?
Answer: 0.2 µg/mL (≈ 0.565 µM)
